Measured values reported in PubChem BioAssay (NCI).
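A five-concentration, 48-hour dose response in 96-well plates underlies each endpoint, interpolated linearly between surrounding concentrations. GI50 = concentration required for 50% inhibition of growth. TGI marks complete inhibition of growth.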

Experiments:
Assay in all cases: inhibition of tumour cell growth, NCI panel, 48 h
[1] = test system: ACHN renal
[2] = test system: SF-268 CNS
[3] = test system: OVCAR-5 ovarian
[4] = test system: TK-10 renal
[5] = test system: UACC-62 melanoma
[6] = test system: HT29 colon
[7] = test system: SK-MEL-5 melanoma
[8] = test system: NCI/ADR-RES ovarian
[9] = test system: HOP-62 NSCLC
[10] = test system: U251 CNS
[11] = test system: SNB-75 CNS
[12] = test system: EKVX NSCLC
[13] = test system: A498 renal
[14] = test system: M14 melanoma
[15] = test system: HCT-116 colon
[16] = test system: SNB-19 CNS
[17] = test system: RPMI-8226 leukemia
[18] = test system: HL-60(TB) leukemia
[19] = test system: T-47D breast
[20] = test system: 786-0 renal
[21] = test system: A549 NSCLC
[22] = test system: MDA-MB-435
[23] = test system: KM12 colon
[24] = test system: BT-549 breast
[25] = test system: SK-MEL-28 melanoma
[26] = test system: SF-539 CNS
[27] = test system: IGROV1 ovarian
[28] = test system: PC-3 prostate
[29] = test system: NCI-H460 lung
[30] = test system: NCI-H522 lung
[31] = test system: OVCAR-8 ovarian
[32] = test system: OVCAR-4 ovarian
[33] = test system: SN12C renal
[34] = test system: CAKI-1 renal
[35] = test system: UACC-257 melanoma
[36] = test system: MDA-MB-231 breast
[37] = test system: HCT-15 colon
[38] = test system: COLO 205 colon
[39] = test system: SF-295 CNS
[40] = test system: HOP-92 NSCLC
[41] = test system: MALME-3M melanoma
[42] = test system: OVCAR-3 ovarian
[43] = test system: DU-145 prostate
[44] = test system: SW-620 colon
[45] = test system: HCC-2998 colon
[46] = test system: NCI-H226 lung
[47] = test system: UO-31 renal
[48] = test system: SK-OV-3 ovarian
[49] = test system: MCF7 breast
[50] = test system: NCI-H23 lung
[51] = test system: LOX IMVI melanoma
[52] = test system: K-562 leukemia
[53] = test system: CCRF-CEM leukemia
[54] = test system: MOLT-4 leukemia
[55] = test system: SK-MEL-2 melanoma
[56] = test system: RXF 393 renal

Compound: COc1cc(C=C2c3ccccc3C(=O)c3ccccc32)ccc1OCCCCOc1cc2c(cc1OC)C(=O)N1CCCC1C=N2 (stereo not given)
- GI50 [1]: 525 nM
- TGI [1]: 1690 nM
- GI50 [2]: 242 nM
- TGI [2]: 726 nM
- GI50 [3]: 581 nM
- TGI [3]: 1450 nM
- GI50 [4]: 302 nM
- TGI [4]: 896 nM
- GI50 [5]: 407 nM
- TGI [5]: 1470 nM
- GI50 [6]: 278 nM
- TGI [6]: 1460 nM
- GI50 [7]: 782 nM
- TGI [7]: 2050 nM
- GI50 [8]: 1620 nM
- TGI [8]: 8830 nM
- GI50 [9]: 579 nM
- TGI [9]: 1310 nM
- GI50 [10]: 249 nM
- TGI [10]: 704 nM
- GI50 [11]: 391 nM
- TGI [11]: 1800 nM
- GI50 [12]: 1140 nM
- TGI [12]: 3170 nM
- GI50 [13]: 454 nM
- TGI [13]: 1610 nM
- GI50 [14]: 440 nM
- TGI [14]: 1470 nM
- GI50 [15]: 174 nM
- TGI [15]: 409 nM
- GI50 [16]: 1020 nM
- TGI [16]: 2560 nM
- GI50 [17]: 101 nM
- TGI [17]: 354 nM
- GI50 [18]: 142 nM
- TGI [18]: 389 nM
- GI50 [19]: 356 nM
- TGI [19]: 1780 nM
- GI50 [20]: 448 nM
- TGI [20]: 1110 nM
- GI50 [21]: 785 nM
- TGI [21]: 3220 nM
- GI50 [22]: 227 nM
- TGI [22]: 601 nM
- GI50 [23]: 227 nM
- TGI [23]: 608 nM
- GI50 [24]: 91.5 nM
- TGI [24]: 542 nM
- GI50 [25]: 192 nM
- TGI [25]: 430 nM
- GI50 [26]: 352 nM
- TGI [26]: 1390 nM
- GI50 [27]: 321 nM
- TGI [27]: 804 nM
- GI50 [28]: 274 nM
- TGI [28]: 3560 nM
- GI50 [29]: 703 nM
- TGI [29]: 2350 nM
- GI50 [30]: 612 nM
- TGI [30]: 9950 nM
- GI50 [31]: 310 nM
- TGI [31]: 1260 nM
- GI50 [32]: 456 nM
- TGI [32]: 8450 nM
- GI50 [33]: 458 nM
- TGI [33]: 1880 nM
- GI50 [34]: 314 nM
- TGI [34]: 1020 nM
- GI50 [35]: 1090 nM
- TGI [35]: 2550 nM
- GI50 [36]: 603 nM
- TGI [36]: 11800 nM
- GI50 [37]: 377 nM
- TGI [37]: 1500 nM
- GI50 [38]: 469 nM
- TGI [38]: 1670 nM
- GI50 [39]: 765 nM
- TGI [39]: 2340 nM
- GI50 [40]: 244 nM
- TGI [40]: 1050 nM
- GI50 [41]: 399 nM
- TGI [41]: 1590 nM
- GI50 [42]: 200 nM
- TGI [42]: 458 nM
- GI50 [43]: 208 nM
- TGI [43]: 479 nM
- GI50 [44]: 214 nM
- TGI [44]: 501 nM
- GI50 [45]: 342 nM
- TGI [45]: 816 nM
- GI50 [46]: 1260 nM
- TGI [46]: 3130 nM
- GI50 [47]: 656 nM
- TGI [47]: 2090 nM
- GI50 [48]: 1410 nM
- TGI [48]: 3890 nM
- GI50 [49]: 304 nM
- TGI [49]: 1640 nM
- GI50 [50]: 337 nM
- TGI [50]: 1490 nM
- GI50 [51]: 279 nM
- TGI [51]: 890 nM

Compound: COc1cc(/C=C/c2cc(/C=C/c3ccc(O)c(OC)c3)n(C(=O)Cc3ccccc3)n2)ccc1O
- GI50 [1]: 419 nM
- TGI [1]: 29200 nM
- GI50 [3]: 2770 nM
- TGI [3]: 80000 nM
- GI50 [52]: 434 nM
- TGI [52]: > 100000 nM
- GI50 [53]: 333 nM
- TGI [53]: > 100000 nM
- GI50 [4]: 2580 nM
- TGI [4]: 9090 nM
- GI50 [5]: 883 nM
- TGI [5]: 4760 nM
- GI50 [6]: 1660 nM
- TGI [6]: 4500 nM
- GI50 [7]: 532 nM
- TGI [7]: 3170 nM
- GI50 [8]: 792 nM
- TGI [8]: 10900 nM
- GI50 [10]: 1210 nM
- TGI [10]: 11200 nM
- GI50 [11]: 545 nM
- TGI [11]: 3450 nM
- GI50 [13]: 2410 nM
- TGI [13]: 6930 nM
- GI50 [14]: 399 nM
- TGI [14]: 2640 nM
- GI50 [15]: 491 nM
- TGI [15]: 6760 nM
- GI50 [16]: 2430 nM
- TGI [16]: > 100000 nM
- GI50 [54]: 464 nM
- TGI [54]: > 100000 nM
- GI50 [17]: 411 nM
- TGI [17]: 2240 nM
- GI50 [19]: 1330 nM
- TGI [19]: 5170 nM
- GI50 [20]: 916 nM
- TGI [20]: 4530 nM
- GI50 [21]: 2800 nM
- TGI [21]: 16600 nM
- GI50 [22]: 218 nM
- TGI [22]: 587 nM
- GI50 [23]: 461 nM
- TGI [23]: > 100000 nM
- GI50 [24]: 758 nM
- TGI [24]: 3930 nM
- GI50 [25]: 1210 nM
- TGI [25]: 15100 nM
- GI50 [26]: 475 nM
- TGI [26]: 3910 nM
- GI50 [28]: 915 nM
- TGI [28]: 4340 nM
- GI50 [29]: 526 nM
- TGI [29]: 10400 nM
- GI50 [30]: 323 nM
- TGI [30]: 1490 nM
- GI50 [31]: 1850 nM
- TGI [31]: 16700 nM
- GI50 [32]: 1110 nM
- TGI [32]: 6390 nM
- GI50 [33]: 1530 nM
- TGI [33]: 44500 nM
- GI50 [34]: 730 nM
- TGI [34]: 38400 nM
- GI50 [35]: 2680 nM
- TGI [35]: 11500 nM
- GI50 [36]: 1450 nM
- TGI [36]: 20900 nM
- GI50 [37]: 388 nM
- TGI [37]: 3790 nM
- GI50 [39]: 2010 nM
- TGI [39]: 6480 nM
- GI50 [41]: 644 nM
- TGI [41]: 4980 nM
- GI50 [42]: 1120 nM
- TGI [42]: 5270 nM
- GI50 [43]: 1480 nM
- TGI [43]: 8630 nM
- GI50 [44]: 684 nM
- TGI [44]: 10900 nM
- GI50 [45]: 2900 nM
- TGI [45]: 11300 nM
- GI50 [46]: 2670 nM
- TGI [46]: 9880 nM
- GI50 [47]: 466 nM
- TGI [47]: 4310 nM
- GI50 [55]: 516 nM
- TGI [55]: 2510 nM
- GI50 [48]: 690 nM
- TGI [48]: 2640 nM
- GI50 [49]: 333 nM
- TGI [49]: 2520 nM
- GI50 [50]: 1560 nM
- TGI [50]: 6590 nM
- GI50 [51]: 609 nM
- TGI [51]: 9020 nM
- GI50 [56]: 1140 nM
- TGI [56]: 3480 nM
